Patent USRE48335E1, “Polymyxin derivatives as antimicrobial compounds” (priority 2014, dated 2020)
Values after ≈ are worked out from the molar mass of the structure shown. Positions of bridges follow the written chain, without caps; N, C: chain ends. Non-standard residues stand in square brackets, D forms with d. Residues, ends and D or L forms follow the SMILES beside them. *: point of attachment. Lauroyl = CCCCCCCCCCCC(=O)*; Decanoyl = CCCCCCCCCC(=O)*; Octanoyl = CCCCCCCC(=O)*; Orn = NCCC[C@H](N)C(=O)O; Dab = NCC[C@H](N)C(=O)O; Dap = NC[C@H](N)C(=O)O

Tests used:
[1] = test system: Pseudomonas aeruginosa
Description: (§1) MICs of the lipopeptides (trifluoroacetic acid salt, TFA) were determined by broth microdilution in cation-adjusted Mueller-Hinton broth (CAMHB) (Oxoid Australia, Thebarton, SA, Australia) according to Clinical and Laboratory Standards Institute standards (Clinical and Laboratory Standards Institute. Performance standards for antimicrobial susceptibility testing; eighteenth informational supplement M100-S18. Wayne, Pa., 2008). Polymyxin B (sulphate) was employed as control. […]

[2] = test system: Acinetobacter baumannii
Description: as §1

[3] = test system: Enterobacter cloacae
Description: as §1

CCCCCCCCCCCC(=O)N[C@@H](CCN)C(=O)N[C@H](C(=O)N[C@@H](CCN)C(=O)N[C@H]1CCNC(=O)[C@H]([C@@H](C)O)NC(=O)[C@H](CCN)NC(=O)[C@H](CCN)NC(=O)[C@H]([C@@H](C)O)NC(=O)[C@@H](CC(C)C)NC(=O)[C@H](CCN)NC1=O)[C@@H](C)O [Compound 28] (Lauroyl-[Dab]T[Dab][Dab][Dab][dL]T[Dab][Dab]T; lactam 4-C)
Minimum inhibitory concentration, Pa ATCC 27853 [1]: 2 µg/mL (≈ 1.67 µM) | Minimum inhibitory concentration, Pa FADDI-PA022 [1]: 4 µg/mL (≈ 3.33 µM) | Minimum inhibitory concentration, Pa FADDI-PA025 [1]: 4 µg/mL (≈ 3.33 µM) | Minimum inhibitory concentration, Ab A ATCC 17978 [2]: 2 µg/mL (≈ 1.67 µM) | Minimum inhibitory concentration, Ab ATCC 19606 [2]: 2 µg/mL (≈ 1.67 µM) | Minimum inhibitory concentration, Ab FADDI-AB034 [2]: 1 µg/mL (≈ 0.834 µM) | Minimum inhibitory concentration, Ec FADDI-EC001 [3]: 0.5 µg/mL (≈ 0.417 µM) | Minimum inhibitory concentration, Ec FADDI-EC003 [3]: 0.5 µg/mL (≈ 0.417 µM) | Minimum inhibitory concentration, Ec FADDI-EC006 [3]: 0.5 µg/mL (≈ 0.417 µM)

CCCCCCCC(=O)N[C@@H](CN)C(=O)N[C@H](C(=O)N[C@@H](CCN)C(=O)N[C@H]1CCNC(=O)[C@H]([C@@H](C)O)NC(=O)[C@H](CCN)NC(=O)[C@H](CCN)NC(=O)[C@H]([C@@H](C)O)NC(=O)[C@@H](CC(C)C)NC(=O)[C@H](CCN)NC1=O)[C@@H](C)O [Compound 31] (Octanoyl-[Dap]T[Dab][Dab][Dab][dL]T[Dab][Dab]T; lactam 4-C)
Minimum inhibitory concentration, Pa ATCC 27853 [1]: 0.5 µg/mL (≈ 0.443 µM) | Minimum inhibitory concentration, Pa FADDI-PA022 [1]: 0.5 µg/mL (≈ 0.443 µM) | Minimum inhibitory concentration, Pa FADDI-PA025 [1]: 16 µg/mL (≈ 14.2 µM) | Minimum inhibitory concentration, Ab A ATCC 17978 [2]: 4 µg/mL (≈ 3.54 µM) | Minimum inhibitory concentration, Ab ATCC 19606 [2]: 4 µg/mL (≈ 3.54 µM) | Minimum inhibitory concentration, Ab FADDI-AB034 [2]: 2 µg/mL (≈ 1.77 µM) | Minimum inhibitory concentration, Ec FADDI-EC001 [3]: <0.125 µg/mL | Minimum inhibitory concentration, Ec FADDI-EC003 [3]: 0.25 µg/mL (≈ 0.221 µM) | Minimum inhibitory concentration, Ec FADDI-EC006 [3]: 0.5 µg/mL (≈ 0.443 µM)

CCCCCCCC(=O)N[C@@H](CCCN)C(=O)N[C@H](C(=O)N[C@@H](CCN)C(=O)N[C@H]1CCNC(=O)[C@H]([C@@H](C)O)NC(=O)[C@H](CCN)NC(=O)[C@H](CCN)NC(=O)[C@H]([C@@H](C)O)NC(=O)[C@@H](CC(C)C)NC(=O)[C@H](CCN)NC1=O)[C@@H](C)O [Compound 32] (Octanoyl-[Orn]T[Dab][Dab][Dab][dL]T[Dab][Dab]T; lactam 4-C)
Minimum inhibitory concentration, Pa ATCC 27853 [1]: >32 µg/mL | Minimum inhibitory concentration, Pa FADDI-PA022 [1]: 1 µg/mL (≈ 0.864 µM) | Minimum inhibitory concentration, Pa FADDI-PA025 [1]: >32 µg/mL | Minimum inhibitory concentration, Ab A ATCC 17978 [2]: >32 µg/mL | Minimum inhibitory concentration, Ab ATCC 19606 [2]: >32 µg/mL | Minimum inhibitory concentration, Ab FADDI-AB034 [2]: >32 µg/mL | Minimum inhibitory concentration, Ec FADDI-EC001 [3]: 1 µg/mL (≈ 0.864 µM) | Minimum inhibitory concentration, Ec FADDI-EC003 [3]: 1 µg/mL (≈ 0.864 µM) | Minimum inhibitory concentration, Ec FADDI-EC006 [3]: >32 µg/mL

CCCCCCCC(=O)N[C@@H](CCN)C(=O)N[C@H](C(=O)N[C@@H](CCCN)C(=O)N[C@H]1CCNC(=O)[C@H]([C@@H](C)O)NC(=O)[C@H](CCN)NC(=O)[C@H](CCN)NC(=O)[C@H]([C@@H](C)O)NC(=O)[C@@H](CC(C)C)NC(=O)[C@H](CCN)NC1=O)[C@@H](C)O [Compound 34] (Octanoyl-[Dab]T[Orn][Dab][Dab][dL]T[Dab][Dab]T; lactam 4-C)
Minimum inhibitory concentration, Pa ATCC 27853 [1]: 1 µg/mL (≈ 0.864 µM) | Minimum inhibitory concentration, Pa FADDI-PA022 [1]: 0.5 µg/mL (≈ 0.432 µM) | Minimum inhibitory concentration, Pa FADDI-PA025 [1]: >32 µg/mL | Minimum inhibitory concentration, Ab A ATCC 17978 [2]: 2 µg/mL (≈ 1.73 µM) | Minimum inhibitory concentration, Ab ATCC 19606 [2]: 2 µg/mL (≈ 1.73 µM) | Minimum inhibitory concentration, Ab FADDI-AB034 [2]: 2 µg/mL (≈ 1.73 µM) | Minimum inhibitory concentration, Ec FADDI-EC001 [3]: <0.125 µg/mL | Minimum inhibitory concentration, Ec FADDI-EC003 [3]: <0.125 µg/mL | Minimum inhibitory concentration, Ec FADDI-EC006 [3]: 4 µg/mL (≈ 3.46 µM)

CCCCCCCC(=O)N[C@@H](CCN)C(=O)N[C@H](C(=O)N[C@@H](CN)C(=O)N[C@H]1CCNC(=O)[C@H]([C@@H](C)O)NC(=O)[C@H](CCN)NC(=O)[C@H](CCN)NC(=O)[C@H](C(C)C)NC(=O)[C@@H](CC(C)C)NC(=O)[C@H](CCN)NC1=O)[C@@H](C)O [Compound 36] (Octanoyl-[Dab]T[Dap][Dab][Dab][dL]V[Dab][Dab]T; lactam 4-C)
Minimum inhibitory concentration, Pa ATCC 27853 [1]: 1 µg/mL (≈ 0.887 µM) | Minimum inhibitory concentration, Pa FADDI-PA022 [1]: 1 µg/mL (≈ 0.887 µM) | Minimum inhibitory concentration, Pa FADDI-PA025 [1]: 4 µg/mL (≈ 3.55 µM) | Minimum inhibitory concentration, Ab A ATCC 17978 [2]: 0.5 µg/mL (≈ 0.443 µM) | Minimum inhibitory concentration, Ab ATCC 19606 [2]: 0.25 µg/mL (≈ 0.222 µM) | Minimum inhibitory concentration, Ab FADDI-AB034 [2]: 0.5 µg/mL (≈ 0.443 µM) | Minimum inhibitory concentration, Ec FADDI-EC001 [3]: 0.25 µg/mL (≈ 0.222 µM) | Minimum inhibitory concentration, Ec FADDI-EC003 [3]: <0.125 µg/mL | Minimum inhibitory concentration, Ec FADDI-EC006 [3]: 0.25 µg/mL (≈ 0.222 µM)

CCCCCCCCCC(=O)N[C@@H](CCN)C(=O)N[C@H](C(=O)N[C@@H](CN)C(=O)N[C@H]1CCNC(=O)[C@H]([C@@H](C)O)NC(=O)[C@H](CCN)NC(=O)[C@H](CCN)NC(=O)[C@H]([C@@H](C)O)NC(=O)[C@@H](CC(C)C)NC(=O)[C@H](CCN)NC1=O)[C@@H](C)O [Compound 37] (Decanoyl-[Dab]T[Dap][Dab][Dab][dL]T[Dab][Dab]T; lactam 4-C)
Minimum inhibitory concentration, Pa ATCC 27853 [1]: 1 µg/mL (≈ 0.864 µM) | Minimum inhibitory concentration, Pa FADDI-PA022 [1]: 0.5 µg/mL (≈ 0.432 µM) | Minimum inhibitory concentration, Pa FADDI-PA025 [1]: 2 µg/mL (≈ 1.73 µM) | Minimum inhibitory concentration, Ab A ATCC 17978 [2]: 0.5 µg/mL (≈ 0.432 µM) | Minimum inhibitory concentration, Ab ATCC 19606 [2]: 0.25 µg/mL (≈ 0.216 µM) | Minimum inhibitory concentration, Ab FADDI-AB034 [2]: 0.25 µg/mL (≈ 0.216 µM) | Minimum inhibitory concentration, Ec FADDI-EC001 [3]: 0.5 µg/mL (≈ 0.432 µM) | Minimum inhibitory concentration, Ec FADDI-EC003 [3]: 4 µg/mL (≈ 3.46 µM) | Minimum inhibitory concentration, Ec FADDI-EC006 [3]: 0.5 µg/mL (≈ 0.432 µM)

CCCCCCCCCC(=O)N[C@@H](CCN)C(=O)N[C@H](C(=O)N[C@@H](CN)C(=O)N[C@H]1CCNC(=O)[C@H]([C@@H](C)O)NC(=O)[C@H](CCN)NC(=O)[C@H](CCN)NC(=O)[C@H](C)NC(=O)[C@@H](CC(C)C)NC(=O)[C@H](CCN)NC1=O)[C@@H](C)O [Compound 38] (Decanoyl-[Dab]T[Dap][Dab][Dab][dL]A[Dab][Dab]T; lactam 4-C)
Minimum inhibitory concentration, Pa ATCC 27853 [1]: 1 µg/mL (≈ 0.887 µM) | Minimum inhibitory concentration, Pa FADDI-PA022 [1]: 2 µg/mL (≈ 1.77 µM) | Minimum inhibitory concentration, Pa FADDI-PA025 [1]: 2 µg/mL (≈ 1.77 µM) | Minimum inhibitory concentration, Ab A ATCC 17978 [2]: 0.5 µg/mL (≈ 0.443 µM) | Minimum inhibitory concentration, Ab ATCC 19606 [2]: 0.5 µg/mL (≈ 0.443 µM) | Minimum inhibitory concentration, Ab FADDI-AB034 [2]: 1 µg/mL (≈ 0.887 µM) | Minimum inhibitory concentration, Ec FADDI-EC001 [3]: 0.5 µg/mL (≈ 0.443 µM) | Minimum inhibitory concentration, Ec FADDI-EC003 [3]: 0.5 µg/mL (≈ 0.443 µM) | Minimum inhibitory concentration, Ec FADDI-EC006 [3]: 1 µg/mL (≈ 0.887 µM)
